Test results reported in US11738031B2, “Compositions and methods for preventing or treating muscle conditions” (The Board of Trustees of the Leland Stanford Junior …, priority 2017, dated 2023).
“Also recorded” adds a separate entry of the source.

Experiments:
Assay type in all cases: cell-based, mouse
[1] = test system: muscle stem cells (MuSCs); experiment: MuSC proliferation in culture, cell number count (hemocytometer)
Procedure: Muscle stem cell culture, treatment and lentiviral infection: Following isolation, we resuspended MuSCs in myogenic cell culture medium containing DMEM/F10 (50:50), 15% FBS, 2.5 ng ml^−1 fibroblast growth factor-2 (FGF-2 also known as bFGF) and 1% penicillin-streptomycin. We seeded MuSC suspensions at a density of 500 cells per cm^2 surface area. We maintained cell cultures at 37° C. in 5% CO2 and changed medium daily. For PGE2, 15-PGDH inhibitor and EP4 receptor antagonist treatment studies, we added 1-200 ng/ml Prostaglandin E2 (Cayman Chemical) (unless specified in the figure legends, 10 ng/ml was the standard concentration used), and/or 1 μM EP4 antagonist (ONO-AE3-208, Cayman Chemical), or 1 μM 15-PGDH inhibitor (SW033291, Cayman Chemical) to the MuSCs cultured on collagen coated dishes for the first 24 h. The cells were then trypsinized and cells reseeded onto hydrogels for an additional 6 days of culture. All treatments were compared to their solvent (DMSO) vehicle control. For stripped serum assays, we resuspended isolated MuSCs in medium containing DMEM/F10 (50:50), 15% charcoal stripped FBS (Gibco, cat #12676011), 2.5 ng ml^−1 bFGF and 1% penicillin-streptomycin. […]
Proliferation assays: To assay proliferation, we used three different assays (hemocytometer, VisionBlue, and EdU). […] For hemocytometer cell number count, we collected cells at indicated timepoints by incubation with 0.5% trypsin in PBS for 5 min at 37° C. and quantified them using a hemocytometer at least 3 times. Additionally, we used the VisionBlue Quick Cell Viability Fluorometric Assay Kit (BioVision, catalog #K303) as a readout for cell growth in culture. Briefly, we incubated MuSCs with 10% VisionBlue in culture medium for 3 h, and measured fluorescence intensity on a fluorescence plate reader (Infinite M1000 PRO, Tecan) at Ex=530-570 nm, Em=590-620 nm. […] We quantified EdU positive cells using the MetaMorph Image Analysis software (Molecular Devices). Data analyses were blinded, where researchers performing cell scoring were unaware of the treatment condition given to sample groups analyzed. […]

[2] = test system: MuSCs; experiment: Clonal MuSC proliferation by time-lapse microscopy (38 h); conditions: PGE2 24 hr
Procedure: We assayed clonal muscle stem cell proliferation by time-lapse microscopy as previously described (26, 27). […] Cells were then trypsinized and reseeded at a density of 500 cells per cm^2 surface area in hydrogel microwells with 600 μm diameter. For time-lapse microscopy we monitored cell proliferation for those wells with single cells for 38 h days after seeding and recorded images every 3 min at 10× magnification using a PALM/AxioObserver Z1 system (Carl Zeiss MicroImaging) with a custom environmental control chamber and motorized stage. We analyzed time-lapse image sequences using the Baxter Algorithms for Cell Tracking and Lineage Reconstruction to identify and track single cells and generate lineage trees (26-28, 51, 52). Viable and dead cells were distinguished in time-lapse sequences based on phase-contrast boundary and motility maintenance or loss, respectively. […] The data analysis was blinded. The researchers performing the imaging acquisition and scoring were unaware of the treatment condition given to sample groups analyzed. Clonal muscle stem cell proliferation and fate analyses: […] Cells were then trypsinized and reseeded at a density of 500 cells per cm^2 surface area in hydrogel microwells with 600 μm diameter. For time-lapse microscopy we monitored cell proliferation for those wells with single cells for 38 h days after seeding and recorded images every 3 min at 10× magnification using a PALM/AxioObserver Z1 system (Carl Zeiss MicroImaging) with a custom environmental control chamber and motorized stage. We analyzed time-lapse image sequences using the Baxter Algorithms for Cell Tracking and Lineage Reconstruction to identify and track single cells and generate lineage trees (26-28, 51, 52). Viable and dead cells were distinguished in time-lapse sequences based on phase-contrast boundary and motility maintenance or loss, respectively. […] The data analysis was blinded. The researchers performing the imaging acquisition and scoring were unaware of the treatment condition given to sample groups analyzed.

[3] = test system: prostaglandin receptors (Ptger1-4); experiment: Quantitative RT-PCR of prostaglandin receptors in MuSCs; conditions: 24 hr PGE2 treatment of MuSCs
Procedure: Quantitative RT-PCR: We isolated RNA from MuSCs using the RNeasy Micro Kit (Qiagen). […] We reverse-transcribed cDNA from total mRNA from each sample using the SensiFAST™ cDNA Synthesis Kit (Bioline). We subjected cDNA to RT-PCR using SYBR Green PCR Master Mix (Applied Biosystems) or TaqMan Assays (Applied Biosystems) in an ABI 7900HT Real-Time PCR System (Applied Biosystems). We cycled samples at 95° C. for 10 min and then 40 cycles at 95° C. for 15 s and 60° C. for 1 min. […] For SYBR Green qRT-PCR, we used the following primer sequences: Gapdh, forward 5′-[sequence]-3′ (SEQ ID NO: 1), reverse 5′-[sequence]-3′ (SEQ ID NO: 2); Hpgd, forward 5′-[sequence]-3′ (SEQ ID NO: 3), reverse 5′-[sequence]-3′ (SEQ ID NO: 4); Ptges, forward 5′-[sequence]-3′ (SEQ ID NO: 5), reverse 5′-[sequence]-3′ (SEQ ID NO: 6); Ptges2, forward 5′-[sequence]-3′ (SEQ ID NO: 7), reverse 5′-[sequence]-3′ (SEQ ID NO: 8); Ptger1, forward 5′ [sequence]-3′ (SEQ ID NO: 9), reverse, 5′ [sequence]-3′ (SEQ ID NO: 10), and Ptger2, forward 5′-[sequence]-3′ (SEQ ID NO: 11), reverse 5′-[sequence]-3′ (SEQ ID NO: 12). TaqMan Assays (Applied Biosystems) were used to quantify Pax7, Myogenin, Slco2a1 (PGT), Ptger3 and Ptger4 in samples according to the manufacturer instructions with the TaqMan Universal PCR Master Mix reagent kit (Applied Biosystems). Transcript levels were expressed relative to Gapdh levels. […]

CCCCC[C@H](O)/C=C/[C@H]1[C@H](O)CC(=O)[C@@H]1C/C=C\CCCC(=O)O [PGE2, prostaglandin E2]
MuSC proliferation in medium with charcoal stripped serum ([1]; PGE2 10 ng/ml added to stripped serum medium, 7 days on hydrogels): divided upon addition of PGE2; also recorded: rescued this block in proliferation | increase in the number of MuSCs relative to controls ([1]; PGE2 10 ng/ml, acute 1-day exposure, counted one week later, young MuSCs on hydrogel): 6 fold | cell sizes of tracked MuSCs [2]: increase in the incidence of larger cell sizes | total cells at the end of the 38 h timespan vs vehicle [2]: almost twice the number of total cells | entry into mitosis post-plating ([2]; 38 h tracking): entry into mitosis is accelerated | cumulative cell divisions and cell numbers of MuSC clones ([2]; 38 h tracking, young MuSCs): marked increase in cumulative cell divisions and cell numbers | transcript levels of prostaglandin receptors (Ptger1-4) after PGE2 treatment [3]: only receptors upregulated after PGE2 treatment of MuSCs are Ptger1 and Ptger4; also recorded: the most highly expressed receptor in MuSCs is Ptger4
